pKd, pKi: −log10 of the molar value.
Legend:
Striatum [1] = assay: Drug uptake in Sprague-Dawley rat striatum at 0.01 nM after 45 mins by autoradiography; assay type: ADME, tissue-based; settings: 10 pM
[2] = Drug uptake in Sprague-Dawley rat harderin gland at 29.1 MBq after 70 to 100 mins post injection by PET imaging; assay type: ADME, tissue-based; settings: in vivo
Cerebral cortex [3] = assay: Drug uptake in Sprague-Dawley rat Cerebral cortex at 29.1 MBq after 70 to 100 mins post injection by PET imaging; assay type: ADME, tissue-based; settings: in vivo
Thalamus [4] = assay: Drug uptake in Sprague-Dawley rat thalamus at 0.01 nM in presence of 100 uM histamine after 45 mins by autoradiography; assay type: ADME, tissue-based; settings: 10 pM
[5] = Drug uptake in Sprague-Dawley rat urinary bladder at 29.1 MBq after 70 to 100 mins post injection by PET imaging; assay type: ADME, tissue-based; settings: in vivo
MDR1 [6] = assay: Apparent permeability from basolateral to apical side in MDCK2 cells expressing MDR1 by gamma counting; assay type: ADME, cell-based, Canis lupus familiaris, MDCK-II; settings: dog, MDCK-MDR1
Striatum [7] = assay: Drug uptake in Sprague-Dawley rat striatum at 0.01 nM in presence of 100 uM histamine after 45 mins by autoradiography; assay type: ADME, tissue-based; settings: 10 pM
Cerebral cortex [8] = assay: Drug uptake in Sprague-Dawley rat cerebral cortex at 0.01 nM after 45 mins by autoradiography; assay type: ADME, tissue-based; settings: 10 pM
[9] = Metabolic stability human plasma assessed as compound degradation at 60 MBq after 120 mins by UPLC analysis; assay type: ADME, cell-free; settings: read-out: Drug degradation
Hippocampus [10] = assay: Drug uptake in Sprague-Dawley rat hippocampus at 0.01 nM after 45 mins by autoradiography; assay type: ADME, tissue-based; settings: 10 pM
[11] = Drug uptake in Sprague-Dawley rat Spinal colum at 29.1 MBq after 70 to 100 mins post injection by PET imaging; assay type: ADME; settings: in vivo
Adrenal gland = assay: Drug uptake in Sprague-Dawley rat adrenal gland at 29.1 MBq after 70 to 100 mins post injection by PET imaging; assay type: ADME, tissue-based; settings: in vivo
[12] = Metabolic stability human plasma assessed as parent compound level at 60 MBq after 90 mins by UPLC analysis; assay type: ADME, cell-free; settings: read-out: Stability
Striatum [13] = assay: Drug uptake in Sprague-Dawley rat Striatum at 29.1 MBq after 70 to 100 mins post injection by PET imaging; assay type: ADME, tissue-based; settings: in vivo
[14] = Drug level in Sprague-Dawley urine rat assessed as parent compound level at 250 MBq, iv measured 30 mins post dose; assay type: ADME, organism-based; settings: in vivo, 0.5 h
Cerebral cortex [15] = assay: Drug uptake in Sprague-Dawley rat cerebral cortex at 0.01 nM in presence of 100 uM histamine after 45 mins by autoradiography; assay type: ADME, tissue-based; settings: 10 pM
MDR1 [16] = assay: Apparent permeability from apical to basolateral side in MDCK2 cells expressing MDR1 by gamma counting; assay type: ADME, cell-based, Canis lupus familiaris, MDCK-II; settings: dog, MDCK-MDR1
Liver microsomes [17] = assay: Metabolic stability rat liver microsome after 120 mins by UPLC analysis; assay type: ADME; settings: 2 h
[18] = Permeability from basolateral to apical side in MDCK2 cells by gamma counting; assay type: ADME, cell-based, Canis lupus familiaris; settings: dog, mdck-ii
[19] = Drug uptake in Sprague-Dawley rat intraorbital lacrimal gland at 29.1 MBq after 70 to 100 mins post injection by PET imaging; assay type: ADME, tissue-based; settings: in vivo
[20] = Distribution coefficient, log D of the compound in octanol and PBS buffer at pH 7.4 by shake-flask method; assay type: physicochemical
MDR1 [21] = assay: Efflux ratio of permeability from basolateral to apical side over apical to basolateral side in MDCK2 cells expressing MDR1 by gamma counting; assay type: ADME, cell-based, Canis lupus familiaris, MDCK-II; settings: dog, MDCK-MDR1
Intestine = assay: Drug uptake in Sprague-Dawley rat intestine at 29.1 MBq after 70 to 100 mins post injection by PET imaging; assay type: ADME, tissue-based; settings: in vivo
Histamine H3 receptor [22] = target: T1, Histamine H3 receptor (Rattus norvegicus, UniProt Q9QYN8); assay: Binding affinity to rat brain histamine H3 receptor after 1 hr by gamma counting
T1 sequence (Q9QYN8 whole entry): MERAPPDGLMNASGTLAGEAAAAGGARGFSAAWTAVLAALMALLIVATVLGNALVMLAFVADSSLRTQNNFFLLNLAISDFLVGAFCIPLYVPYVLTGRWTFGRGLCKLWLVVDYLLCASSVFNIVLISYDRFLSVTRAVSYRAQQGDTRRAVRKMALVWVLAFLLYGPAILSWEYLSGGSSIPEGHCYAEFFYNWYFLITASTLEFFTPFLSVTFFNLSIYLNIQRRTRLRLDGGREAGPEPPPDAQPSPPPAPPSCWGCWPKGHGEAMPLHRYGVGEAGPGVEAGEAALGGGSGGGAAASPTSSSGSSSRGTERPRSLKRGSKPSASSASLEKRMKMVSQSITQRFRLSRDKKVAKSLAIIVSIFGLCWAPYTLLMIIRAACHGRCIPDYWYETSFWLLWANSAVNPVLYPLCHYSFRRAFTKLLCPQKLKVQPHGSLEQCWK

Liver = assay: Drug uptake in Sprague-Dawley rat liver at 29.1 MBq after 70 to 100 mins post injection by PET imaging; assay type: ADME, tissue-based; settings: in vivo
Cerebellum = assay: Drug uptake in Sprague-Dawley rat cerebellum at 0.01 nM after 45 mins by autoradiography; assay type: ADME, tissue-based; settings: 10 pM
Liver microsomes [23] = assay: Metabolic stability human liver microsome after 120 mins by UPLC analysis; assay type: ADME; settings: 2 h
Kidney = assay: Drug uptake in Sprague-Dawley rat kidney pelvis at 29.1 MBq after 70 to 100 mins post injection by PET imaging; assay type: ADME, tissue-based; settings: in vivo
Rattus norvegicus [24] = assay: Drug uptake in Sprague-Dawley rat at 29.1 MBq after 70 to 100 mins post injection coadministered with 2 mg/kg ciproxifan by PET imaging; assay type: ADME, organism-based; set-up: dose 2 mg/kg; settings: in vivo
Hippocampus [25] = assay: Drug uptake in Sprague-Dawley rat hippocampus at 0.01 nM in presence of 100 uM histamine after 45 mins by autoradiography; assay type: ADME, tissue-based; settings: 10 pM
Plasma = assay: Metabolic stability human plasma at 60 MBq after 60 mins by UPLC analysis; assay type: ADME, cell-free; settings: 1 h
[26] = Drug uptake in Sprague-Dawley rat thyroid gland at 29.1 MBq after 70 to 100 mins post injection by PET imaging; assay type: ADME, tissue-based; settings: in vivo
[27] = Drug uptake in Sprague-Dawley rat skeleton joint at 29.1 MBq after 70 to 100 mins post injection by PET imaging; assay type: ADME, tissue-based; settings: in vivo
Rattus norvegicus [28] = assay: Drug uptake in Sprague-Dawley rat at 29.1 MBq after 70 to 100 mins post injection coadministered with 1 mg/kg ST900 by PET imaging; assay type: ADME, organism-based; set-up: dose 1 mg/kg; settings: in vivo
[29] = Permeability from apical to basolateral side in MDCK2 cells by gamma counting; assay type: ADME, cell-based, Canis lupus familiaris; settings: dog, mdck-ii
Rattus norvegicus [30] = assay: Stability in Sprague-Dawley rat assessed as parent compound level at 250 MBq, iv measured 5 to 30 mins post dose; assay type: ADME, organism-based; settings: in vivo
[31] = Drug uptake in Sprague-Dawley rat salivary gland at 29.1 MBq after 70 to 100 mins post injection by PET imaging; assay type: ADME, tissue-based; settings: in vivo
Thalamus [32] = assay: Drug uptake in Sprague-Dawley rat thalamus at 0.01 nM after 45 mins by autoradiography; assay type: ADME, tissue-based; settings: 10 pM
Histamine H3 receptor [33] = target: T1, Histamine H3 receptor; assay: Binding affinity to rat histamine H3 receptor low affinity site after 1 hr by Schard plot analysis
Histamine H3 receptor [34] = target: T1, Histamine H3 receptor; assay: Binding affinity to rat cerebral cortex histamine H3 receptor; assay type: tissue-based
[35] = Metabolic stability human liver microsomes assessed as compound oxidation after 90 mins by UPLC analysis; assay type: ADME, Microsome; settings: read-out: Drug metabolism
Liver microsomes [36] = assay: Metabolic stability rat liver microsome after 90 mins by UPLC analysis; assay type: ADME; settings: 1.5 h

[18F]C1CCN(Cc2ccc(OCCCN3CCCCC3)cc2)CC1
Drug uptake (Striatum [1]): Active | Drug uptake [2]: Active | Drug uptake (Cerebral cortex [3]): Not Active | Drug uptake (Thalamus [4]): Not Active | Drug uptake [5]: Active | Papp B→A (MDR1 [6]): 1.2 nm/s | Drug uptake (Striatum [7]): Not Active | Drug uptake (Cerebral cortex [8]): Active | metabolised at 2 h, 60 MBq [9]: 3% | Drug uptake (Hippocampus [10]): Active | Drug uptake [11]: Active | Drug uptake (Adrenal gland): Active | remaining at 1.5 h, 60 MBq [12]: 98% | Drug uptake (Striatum [13]): Not Active | Drug uptake [14]: 90% | Drug uptake (Cerebral cortex [15]): Not Active | Papp A→B (MDR1 [16]): 1.6 nm/s | Stability (Liver microsomes [17]): Stable | permeability [18]: permeable | Drug uptake [19]: Active | logD [20]: 0.35 | efflux ratio (MDR1 [21]): 0.8 | Drug uptake (Intestine): Active | pKd (Histamine H3 receptor [22]): 9.47 | Drug uptake (Liver): Active | Drug uptake (Cerebellum): Not Active | Stability (Liver microsomes [23]): Stable | Drug uptake (Kidney): Active | Drug uptake (Rattus norvegicus [24]): Active | Drug uptake (Hippocampus [25]): Not Active | Stability (Plasma): Stable | Drug uptake [26]: Active | Drug uptake [27]: Active | Drug uptake (Rattus norvegicus [28]): Active | permeability [29]: permeable | Stability (Rattus norvegicus [30]): Stable | Drug uptake [31]: Active | Drug uptake (Thalamus [32]): Active | pKd (Histamine H3 receptor [33]): < 5.52

O=C(O)c1cn(C2CC2)c2cc(N3CCNCC3)c(F)cc2c1=O [CIPROFLOXACIN]
pKi (Histamine H3 receptor [34]): 9.18

C[C@]12CC[C@H]3[C@@H](CCC4=CC(=O)CC[C@@]43C)[C@@H]1CC[C@@H]2O [TESTOSTERONE]
metabolised at 1.5 h [35]: 60% | Stability (Liver microsomes [36]): Unstable

CC[C@]1(O)C[C@@H]2CN(CCc3c([nH]c4ccccc34)[C@@](C(=O)OC)(c3cc4c(cc3OC)N(C)[C@H]3[C@@](O)(C(=O)OC)[C@H](OC(C)=O)[C@]5(CC)C=CCN6CC[C@]43[C@@H]65)C2)C1 [VINBLASTINE]
Papp B→A (MDR1 [6]): 32.4 nm/s | Papp A→B (MDR1 [16]): 2.2 nm/s | efflux ratio (MDR1 [21]): 15

Reference: ChEMBL document CHEMBL2203285, “Radiofluorinated histamine H₃ receptor antagonist as a potential probe for in vivo PET imaging: radiosynthesis and pharmacological evaluation” (Bioorg Med Chem, 2012)
